pIC50: −log10 of the molar value.
Tests used:
[1] = target: Matrix metalloproteinase-9 (Homo sapiens, UniProt P14780); assay: Inhibition of human active MMP9 using (7-methoxycoumarin-4-yl) acetyl pro-Leu-Gly-Leu-[3-(2,4-dinitrophenyl)-L-2,3-diamino-propionyl]-Ala-Arg-NH2 fluorogenic substrate assessed as fluorescent product release
[2] = target: 72 kDa type IV collagenase (Homo sapiens, UniProt P08253)
Chain of 72 kDa type IV collagenase (P08253 whole entry): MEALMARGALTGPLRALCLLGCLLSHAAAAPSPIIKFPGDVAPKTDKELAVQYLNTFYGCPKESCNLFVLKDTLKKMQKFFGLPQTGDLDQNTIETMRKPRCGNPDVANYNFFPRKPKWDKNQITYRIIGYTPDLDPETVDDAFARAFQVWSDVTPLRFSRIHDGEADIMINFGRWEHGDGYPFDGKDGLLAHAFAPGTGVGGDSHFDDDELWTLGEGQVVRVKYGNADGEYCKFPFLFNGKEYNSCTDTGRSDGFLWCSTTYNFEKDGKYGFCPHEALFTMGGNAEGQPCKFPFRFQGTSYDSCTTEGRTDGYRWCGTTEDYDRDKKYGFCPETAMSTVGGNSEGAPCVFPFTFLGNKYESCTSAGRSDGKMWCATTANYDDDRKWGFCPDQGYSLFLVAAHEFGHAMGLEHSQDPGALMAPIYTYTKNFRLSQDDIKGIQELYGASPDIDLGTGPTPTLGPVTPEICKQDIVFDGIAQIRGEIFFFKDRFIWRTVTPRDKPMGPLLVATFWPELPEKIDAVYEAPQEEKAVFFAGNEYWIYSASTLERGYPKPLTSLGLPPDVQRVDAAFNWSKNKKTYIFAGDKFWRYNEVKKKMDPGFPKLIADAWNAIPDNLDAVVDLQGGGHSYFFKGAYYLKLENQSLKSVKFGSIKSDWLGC
Description: Inhibition of human active MMP2 using (7-methoxycoumarin-4-yl) acetyl pro-Leu-Gly-Leu-[3-(2,4-dinitrophenyl)-L-2,3-diamino-propionyl]-Ala-Arg-NH2 fluorogenic substrate assessed as fluorescent product release

Chain of Matrix metalloproteinase-9 (P14780 whole entry): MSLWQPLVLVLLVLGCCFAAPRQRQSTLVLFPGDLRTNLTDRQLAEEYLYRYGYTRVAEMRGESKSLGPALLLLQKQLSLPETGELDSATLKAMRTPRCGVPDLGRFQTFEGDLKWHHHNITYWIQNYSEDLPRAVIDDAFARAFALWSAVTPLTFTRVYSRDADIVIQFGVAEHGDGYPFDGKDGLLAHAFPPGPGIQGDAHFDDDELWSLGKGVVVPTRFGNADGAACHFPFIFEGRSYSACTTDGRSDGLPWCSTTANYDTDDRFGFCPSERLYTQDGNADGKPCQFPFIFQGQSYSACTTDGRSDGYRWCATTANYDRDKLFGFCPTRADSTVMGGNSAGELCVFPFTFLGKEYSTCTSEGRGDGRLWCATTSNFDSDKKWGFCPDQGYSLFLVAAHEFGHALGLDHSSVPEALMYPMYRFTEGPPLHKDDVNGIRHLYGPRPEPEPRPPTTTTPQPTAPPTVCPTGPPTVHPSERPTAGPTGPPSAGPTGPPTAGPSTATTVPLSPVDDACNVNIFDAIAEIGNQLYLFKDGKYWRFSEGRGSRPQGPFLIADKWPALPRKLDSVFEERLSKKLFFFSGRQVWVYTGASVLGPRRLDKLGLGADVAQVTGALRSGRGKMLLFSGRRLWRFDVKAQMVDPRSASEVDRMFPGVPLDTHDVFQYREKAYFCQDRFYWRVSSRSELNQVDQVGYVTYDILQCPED

Row | Compound | pIC50 [1] | pIC50 [2]
1 | C=CC[C@@H](C(=O)NO)N(Cc1cccnc1)S(=O)(=O)c1ccc(OC)cc1 | 8.19 | 8.20
2 | CC[C@H](C(=O)O)N(Cc1cccnc1)S(=O)(=O)c1ccc(OC)cc1 | 5.06 | 4.99
3 | C=CC[C@H](C(=O)NO)N(Cc1cccnc1)S(=O)(=O)c1ccc(OC)cc1 | 9.27 | 8.41
4 | COc1ccc(S(=O)(=O)N(Cc2cccnc2)[C@H](CCF)C(=O)O)cc1 | < 4.00 | < 4.00
5 | C=C(F)C[C@@H](C(=O)O)N(Cc1cccnc1)S(=O)(=O)c1ccc(OC)cc1 | < 4.00 | < 4.00
6 | CC[C@@H](C(=O)NO)N(Cc1cccnc1)S(=O)(=O)c1ccc(OC)cc1 | 6.15 | 5.85
7 | C=CC[C@@H](C(=O)O)N(Cc1cccnc1)S(=O)(=O)c1ccc(OC)cc1 | < 4.00 | < 4.00
8 | COc1ccc(S(=O)(=O)N(Cc2cccnc2)[C@H](CCF)C(=O)NO)cc1 | 7.91 | 8.19
9 | C=CC[C@H](C(=O)O)N(Cc1cccnc1)S(=O)(=O)c1ccc(OC)cc1 | 5.77 | 5.68
10 | C=C(F)C[C@H](C(=O)O)N(Cc1cccnc1)S(=O)(=O)c1ccc(OC)cc1 | < 4.00 | 4.45
11 | CC[C@H](C(=O)NO)N(Cc1cccnc1)S(=O)(=O)c1ccc(OC)cc1 | 8.34 | 8.70
12 | C=C(F)C[C@H](C(=O)NO)N(Cc1cccnc1)S(=O)(=O)c1ccc(OC)cc1 | 8.08 | 8.03
13 | CC[C@@H](C(=O)O)N(Cc1cccnc1)S(=O)(=O)c1ccc(OC)cc1 | < 4.00 | < 4.00
14 | COc1ccc(S(=O)(=O)N(Cc2cccnc2)[C@@H](CCF)C(=O)O)cc1 | < 4.00 | 4.46
15 | C=C(F)C[C@@H](C(=O)NO)N(Cc1cccnc1)S(=O)(=O)c1ccc(OC)cc1 | 8.31 | 8.14

From ChEMBL document CHEMBL3585266, “New matrix metalloproteinase inhibitors based on γ-fluorinated α-aminocarboxylic and α-aminohydroxamic acids” (Bioorg Med Chem, 2015)
